Data published in the NIST ThermoML archive (doi:10.1016/j.jct.2007.07.005).

Test: xn = mol fraction of the nth substance listed
Conditions: Fluid (supercritical or subcritical phases), vibrating tube

CCCCCO [pentan-1-ol] + O=C=O
Conditions | mass density [kg/m3]
352.81 K, 18013 kPa, x2 = 0.0816 | 786.86
352.81 K, 18017 kPa, x2 = 0.9216 | 678.45
352.81 K, 18023 kPa, x2 = 0.7274 | 779.16
352.81 K, 18992 kPa, x2 = 0.0816 | 787.69
352.81 K, 19030 kPa, x2 = 0.9216 | 693.91
352.81 K, 19050 kPa, x2 = 0.7274 | 783.67
352.81 K, 19999 kPa, x2 = 0.7274 | 787.59
352.81 K, 20017 kPa, x2 = 0.9216 | 707.27
352.81 K, 20032 kPa, x2 = 0.0816 | 788.58
352.81 K, 20998 kPa, x2 = 0.0816 | 789.4
352.81 K, 21041 kPa, x2 = 0.9216 | 719.46
352.81 K, 21063 kPa, x2 = 0.7274 | 791.77
352.81 K, 22012 kPa, x2 = 0.0816 | 790.22
352.81 K, 22020 kPa, x2 = 0.7274 | 795.33
352.81 K, 22043 kPa, x2 = 0.9216 | 730.24
352.81 K, 23032 kPa, x2 = 0.9216 | 740.03
352.81 K, 23038 kPa, x2 = 0.7274 | 798.99
352.81 K, 23043 kPa, x2 = 0.0816 | 791.09
352.81 K, 23982 kPa, x2 = 0.7274 | 802.22
352.81 K, 24064 kPa, x2 = 0.0816 | 791.93
352.81 K, 25028 kPa, x2 = 0.0816 | 792.72
352.81 K, 25068 kPa, x2 = 0.7274 | 805.8
352.86 K, 7013 kPa, x2 = 0.1347 | 777.29
352.86 K, 8003 kPa, x2 = 0.1347 | 778.24
352.86 K, 9042 kPa, x2 = 0.1347 | 779.29
352.86 K, 9997 kPa, x2 = 0.1347 | 780.21
352.86 K, 11043 kPa, x2 = 0.1347 | 781.23
352.86 K, 12025 kPa, x2 = 0.1347 | 782.2
352.86 K, 13003 kPa, x2 = 0.1347 | 783.16
352.86 K, 14006 kPa, x2 = 0.1347 | 784.13
352.86 K, 15015 kPa, x2 = 0.1347 | 785.07
352.86 K, 16005 kPa, x2 = 0.1347 | 786.01
352.86 K, 17031 kPa, x2 = 0.1347 | 786.94
352.86 K, 18022 kPa, x2 = 0.1347 | 787.86
352.86 K, 19009 kPa, x2 = 0.1347 | 788.74
352.86 K, 20022 kPa, x2 = 0.1347 | 789.63
352.86 K, 21024 kPa, x2 = 0.1347 | 790.52
352.86 K, 21995 kPa, x2 = 0.1347 | 791.37
352.86 K, 23030 kPa, x2 = 0.1347 | 792.28
352.86 K, 24029 kPa, x2 = 0.1347 | 793.15
352.86 K, 25004 kPa, x2 = 0.1347 | 793.98
352.88 K, 14062 kPa, x2 = 0.6054 | 787.97
352.88 K, 15034 kPa, x2 = 0.6054 | 790.53
352.88 K, 16029 kPa, x2 = 0.6054 | 793.07
352.88 K, 17048 kPa, x2 = 0.6054 | 795.6
352.88 K, 18046 kPa, x2 = 0.6054 | 798.05
352.88 K, 19026 kPa, x2 = 0.6054 | 800.32
352.88 K, 20030 kPa, x2 = 0.6054 | 802.6
352.88 K, 21058 kPa, x2 = 0.6054 | 804.93
352.88 K, 22056 kPa, x2 = 0.6054 | 807.03
352.88 K, 23049 kPa, x2 = 0.6054 | 809.11
352.88 K, 24065 kPa, x2 = 0.6054 | 811.21
352.88 K, 25092 kPa, x2 = 0.6054 | 813.29
362.58 K, 20013 kPa, x2 = 0.9757 | 578.28
362.58 K, 21042 kPa, x2 = 0.9757 | 600.7
362.58 K, 22020 kPa, x2 = 0.9757 | 619.68
362.58 K, 23010 kPa, x2 = 0.9757 | 637.03
362.58 K, 24034 kPa, x2 = 0.9757 | 653.33
362.58 K, 25047 kPa, x2 = 0.9757 | 667.94
362.59 K, 517 kPa, x2 = 0 | 759.7
362.59 K, 1023 kPa, x2 = 0 | 760.25
362.59 K, 2005 kPa, x2 = 0 | 761.26
